Assay results reported in BigSolDB 2.1.

O=C(Oc1ccccc1)c1ccccc1O
solubility (mole fraction)
Conditions	in ethanol	in isobutanol	in isopropanol	in methanol	in n-butanol	in n-propanol	in sec-butanol
283.15 K	0.0226	0.0185	0.0169	0.0162	0.0337	0.0272	0.0381
288.15 K	0.0361	0.0288	0.0273	0.0251	0.0511	0.043	0.0602
293.15 K	0.0647	0.0517	0.0487	0.0459	0.0908	0.0756	0.105
298.15 K	0.127	0.112	0.101	0.0946	0.182	0.152	0.201
303.15 K	0.289	0.279	0.275	0.274	0.34	0.33	0.398
308.15 K	0.715	0.709	0.702	0.694	0.75	0.718	0.752
